Legend:
[1] = test system: Huh-7 cells; assay: BBP-induced signaling in Huh-7 cells (RT-PCR, Western blot, immunofluorescence); type: cell-based, human; conditions: PD98059 20 μM, 1 h pretreatment
Description: Huh-7 cells (3×10^5) were seeded into a 6-well dish and incubated for 24 h. Cells cultured serum-free medium overnight were treated with BBP (1 μM) for various time intervals. After BBP stimulation, cells were washed twice with PBS. Total RNAs were extracted by TRIzol methods (Invitrogen). RNA (2 μg) was used to synthesize cDNA by Reverse Transcription System (Promega). The c-DNAs were amplified by the specific primers. The primer pairs were designed as follows: AhR, forward 5′-TACTCTGCCGCCCAAACTGG-3′ (SEQ ID NO:49), reverse 5′-GCTCTGCAACCTCCGATTCC-3′ (SEQ ID NO:50); β-actin, forward 5′-CTC GCT GTC CAC CTT CCA-3′ (SEQ ID NO:51), reverse 5′-GCT GTC ACC TTC ACC GTTC-3′ (SEQ ID NO:52). PCR conditions were set at 95° C. for 5 min and 95° C. for 30 sec, 54° C. for 30 sec, 72° C. for 1 min followed by 72° C. for 10 min (36 cycles). The products were separated by 2% agarose gels and visualized by ethidium bromide.
Huh-7 cells (1×10^6) were seeded into 10 cm dish and cultured overnight. The culture medium was changed to serum-free medium for another night. Cells were treated with BBP (1 μM) for various time intervals. […] Cells were then washed twice with ice-cold PBS and lysed by RIPA lysis buffer (Minipore). Protein concentration was measured by BCA protein assay kit (Thermo). Equal amounts of protein (30 μg protein) were resolved by 8% SDS-PAGE, transferred onto PVDF membrane, and blocked with 5% non-fat dry milk for 1 h at room temperature. After blocking, the membrane was incubated with the primary antibodies including AhR (1:1000), Cox-2 (1:1000), Gαq/11 (1:100), Gβ (1:100), β-actin (1:5000), p44/42 MAP kinase (1:1000) or phospho-p44/42 MAP kinase (1:1000) overnight at 4° C. Cells were washed three times with PBST and then incubated with HRP conjugated secondary antibodies for 1 h at room temperature. After washing, the blot was visualized using an enhanced chemiluminescence kit (ECL) (Amersham).
Cells with or without transfection by AhR siRNA were cultured and treated with BBP (1 μM) for 5 and 15 min each. After treatment with primary and secondary antibodies for AhR and Gαq/11, cells were subjected to confocal immunofluorescence microscopy to analyze the dynamic movement in the cell compartments.

[2] = test system: 6-OHDA-induced PD rats; assay: Immunofluorescence tissue analysis of regeneration of the dopaminergic nigrostriatal pathway; type: in vivo
Description: To obtain the brain sections, rats were anesthetized by sodium pentobarbitone (60 mg/kg i.p., Apoteksbolaget, Sweden) and trans-cardially perfused with saline (50 ml, 0.9% w/v) followed by ice-cold paraformaldehyde (200 ml, 10% w/v in 0.02 M PBS) were performed at 18- and 12-week in the acute and chronic PD rats, respectively. Brain sections were subjected for immunocytochemistry, immunohistochemistry, and immunofluorescence tissue analysis as indicated.
To further verify the regeneration of the dopaminergic nigrostriatal pathway after cell therapy, immunofluorescence tissue analysis was performed (TissueGnostics Gmbh, Vienna, Austria). Brain sections were investigated, including 14 acute PD rats (i.e., 2 at 1-week and 2 at 6-week post-injury and 2 controls, 6 at 12-weeks after cell transplantation and 2 controls) and 4 chronic PD rats (i.e., 2 at 12-week after cell therapy and 2 controls). In the SNC, 6-OHDA caused progressive neural degeneration, resulting in various sizes of cavity at 6 weeks post-injury (FIG. 31).

[3] = test system: hTS cells; assay: LIF dose effect on pluripotency transcription factors in hTS cells (RT-PCR, qPCR, flow cytometry); type: cell-based, human
Description: The differential gene expressions of Oct4, Sox2, NANOG, fgfr2, FGF4, BMP4, Cdx2, and endogenous control β-actin (ACTB) were measured in the hTS and the hTS cells treated by 500 units LIF (Chemicon, Temecula, CA) by IQ5 Real-time PCR detection system (Bio-Rad Laboratories) that using fluorescein as an internal passive reference dye for normalization of well-to-well optical variation. PCR amplifications were carried out in a total volume of 25 μl, containing 12.5 μl of 2×SYBR Green supermix (Bio-Rad), 0.5 μl of 10 μM of each primer and 0.5 μl of cDNA samples and mixed with sterile water. The reaction was initiated at 95° C., 3 minutes, followed by 60 three-step amplification cycles consisting of 30 s denaturation at 95° C., 30 s annealing at 60° C., 15 s extension at 72° C. At final dissociation stage, it was run to generate a melting curve for verification of amplification product specificity. Real-time qPCR was monitored and analyzed by the Bio-Rad IQ5 optical system software version 2.0 (Bio-Rad). Relative mRNA levels were calculated using the comparative Ct method (Bio-Rad instruction manual) and presented with ratio to biological controls. ACTB transcript levels were confirmed to correlate well with total RNA amounts and therefore used for normalization throughout. All primer pairs used were confirmed to approximately double the amount of product within one cycle and to yield a single product of the predicted size. Primer sequences of Oct4, Sox2, NANOG, fgfr2, FGF4, BMP4, Cdx2, and endogenous control β-actin (ACTB) are shown in Supplemental Data Table 3.
Cells (5×10^6 cells/ml) were incubated with a variety of primary antibodies for 30 min and then incubated with the appropriate fluorescein isothiocyanate (FITC)-, phycoerythrin (PE)- or Rho-conjugated secondary antibody (Jackson ImmunoResearch, West Grove, PA) at adjusted dilution for 1 h at 4° C. After thorough washing, cells were re-suspended in PBS (1 ml) and subjected to flow cytometry (FACScan, BD Biosciences, San Jose, CA). The data were analyzed with Cell-Quest software (BD Biosciences).
The effects of LIF withdrawal on human trophoblast stem (hTS) cells were examined since hTS cells expresses pluripotent gene markers of both embryonic stem (ES) cells and trophoblastic stem (TS) cells such as Oct4, Nanog, Sox2, and Cdx2 (FIG. 1a). hTS cells were treated with different dosages of LIF, i.e., 500 (mimic at ampulla), 250 (mimic at mid-portion), and 125 units (mimic at isthmus) for 3 days each, showing that LIF promoted Oct4 expression but represses Cdx2, Nanog, and Sox2 expressions in a dose-dependent manner (FIG. 1b). Quantitative PCR analyses supported these findings (FIG. 1c). As the relative expression ratio of Oct4 to Cdx2 enables to determine cell fate in early embryonic differentiation (Niwa et al., 2000), the Oct4/Cdx2 ratio ([…]) appeared to be the highest at the ampulla which decreased to 0.2-fold at mid-portion and became near one at isthmic portion (FIG. 1d). This decreasing trend of Oct4/Cdx2 ratio actually facilitates the differentiation towards trophectoderm fate (Niwa et al., 2005). […] This role of rescuer was further supported by the prominently high Nanog/Oct4 ratio of LIF with 125 units compared to the ratio of LIF with 500 units and the apparent increase of Cdx2/Oct4 ratio at LIF with 125 units (FIG. 1e) No apparent change of Sox2/Cdx2 was found.

COc1cccc(-c2cc(=O)c3ccccc3o2)c1N [PD98059]
BBP-induced ERK phosphorylation and COX-2 activation [1]: blocked

NCCc1cc(O)c(O)cc1O [6-OHDA, 6-hydroxydopamine]
DA (TH+) neurons in SNC compared to intact side ([2]; 1-week post-injury): 48% | DA (TH+) neurons in striatum compared to intact side ([2]; 1-week post-injury): 78% | DA (TH+) neurons in SNC compared to intact side ([2]; 6-week post-injury): 13% | DA (TH+) neurons in striatum compared to intact side ([2]; 6-week post-injury): 4% | GFAP(+) cells in lesioned striatum compared to intact side ([2]; 6 weeks post-injury): 65.5%

leukemia inhibitory factor [LIF]
Oct4/Cdx2 ratio ([3]; LIF 125 units (mimic at isthmus), 3 days): one | Nanog/Cdx2 ratio ([3]; LIF 125 units, 3 days): 2 fold | Oct4/Cdx2 ratio ([3]; LIF 250 units (mimic at mid-portion), 3 days): 0.2 fold | Oct4 expression ([3]; LIF 500, 250, 125 units, 3 days): promoted | Cdx2, Nanog, and Sox2 expressions ([3]; LIF 500, 250, 125 units, 3 days, dose-dependent): represses | Oct4/Cdx2 ratio ([3]; LIF 500 units (mimic at ampulla), 3 days): 0.4 fold | Nanog/Cdx2 ratio ([3]; LIF 500 units, 3 days): 0.1 fold | Nanog expression ([3]; LIF-induced cells, isthmus level (125 U/ml), flow cytometry): 62.5% | RA-induced Nanog expression ([3]; hTS cells preincubated with RA (10 μM) overnight, then LIF 125, 250, 500 U/ml 1 day, flow cytometry): suppresses
